Patent US20250073210A1, “Use of Ergothioneine for Enhancing Glutathione Level” (priority 2022, published 2025)

Columns and labels:
Nrf2 pathway = test: Gene expression profile of keratinocytes (mQPA-8-Nrf2 array as a whole); format: cell-based, human
Protocol: (§1) In the present study, the effects of compound L-Ergothioneine were investigated in normal human epidermal keratinocytes (NHEK) under basal or UV-irradiated conditions. More specifically, the effects of this compound were evaluated using RT-qPCR technology. Extracted mRNA was analyzed using a PCR array (“mQPA-8-Nrf2”) for the analysis of 8 target genes (including 1 housekeeping gene) selected for their role in Nrf2 pathway. Prior to this assay, a preliminary cytotoxicity assay was performed on compound L-Ergothioneine and Resveratrol (reference in basal condition) using a standard WST-8 reduction assay, in order to determine the concentrations to be tested in this study.
(§2) Cell type: Normal human epidermal keratinocytes (NHEK) used at the 3rd passage. Culture conditions: 37° C., 5% CO2. Culture medium: Keratinocyte-SFM optimized for the assay, supplemented with Epidermal Growth Factor Pituitary extract. Assay medium: Keratinocyte-SFM optimized for the assay. Test compound: L-Ergothioneine in ultrapure water. Test concentrations: 0.5, 3 and 30 μM. Reference: Resveratrol. Test concentration: 20 μM.
(§3) Keratinocytes were seeded in 24-well plates and cultured for 24 hours in culture medium and in assay medium for a further 24 hours. The medium was then replaced by assay medium containing or not (control) the compound or Resveratrol and cells were pre-incubated for 24 hours.
(§4) After pre-incubation, the medium was then removed and replaced by a PBS solution. For basal conditions, the plate was kept in the dark during the irradiation time. For irradiated conditions, the cells were irradiated with UVB−275 mJ/cm^2 (+UVA−2 J/cm^2) using a SOL500 Sun Simulator equipped with an H2 filter (Dr. Hönle, AG). After irradiation time, the treatments were renewed, and the cells were incubated for 24 hours. All experimental conditions were performed in n=3. At the end of incubation, the cells were washed in phosphate buffered saline (PBS) solution and immediately frozen at −80° C.
(§5) The expression of markers was analyzed using RT-qPCR method on total RNA extracted from the cell monolayers of each experimental condition (before RNA extraction, the replicates of the same experimental condition were pooled). The analysis of transcripts was performed in n=2 using a PCR array dedicated to research and adapted to ‘screening’ format and targeting 8 genes selected for their role in Nrf2 pathway.

RPS28 = test: RT-qPCR PCR array mQPA-8-Nrf2, housekeeping gene RPS28; format: cell-based, human
Protocol: as §1, §2, §3, §4, §5
(§6) Total RNA was extracted from each sample using TriPure Isolation Reagent® according to the supplier's instructions. The amount and quality of RNA were evaluated using capillary electrophoresis (Bioanalyzer 2100, Agilent technologies). The complementary DNA (cDNA) was synthetized by reverse transcription of total RNA in presence of oligo(dT) and «Transcriptor Reverse Transcriptase» (Roche Molecular System Inc.). The cDNA quantities were then adjusted before PCR.
(§7) The PCR (Polymerase Chain Reaction) were performed using the «LightCycler®» system (Roche Molecular System Inc.) according to the supplier's instructions. The reaction mix (10 μl final) was prepared as follows: 2.5 μl of cDNA; primers (forward and reverse); reagent mix (Roche) containing taq DNA polymerase, SYBR Green I and MgCl2.
(§8) The incorporation of fluorescence in amplified DNA was continuously measured during the PCR cycles. […] The value selected for RE calculations is the “output point” (Ct) of the fluorescence curve. For a considered marker, the highest is the cycle number; the lowest is the mRNA quantity. The RE value was calculated with the formula: (½^number of cycles)×10^6. The PCR array used in the present study included 1 reference gene (RPS28).

MT1G = test: RT-qPCR PCR array mQPA-8-Nrf2, MT1G expression in NHEK; format: cell-based, human
Protocol: as §1, §2, §3, §4, §5, §6, §7, §8

TXNRD1 = test: RT-qPCR PCR array mQPA-8-Nrf2, TXNRD1 expression in NHEK; format: cell-based, human
Protocol: as §1, §2, §3, §4, §5, §6, §7, §8

GCLC = test: RT-qPCR PCR array mQPA-8-Nrf2, GCLC expression in NHEK; format: cell-based, human
Protocol: as §1, §2, §3, §4, §5, §6, §7, §8

HMOX1 = test: RT-qPCR PCR array mQPA-8-Nrf2, HMOX1 expression in NHEK; format: cell-based, human
Protocol: as §1, §2, §3, §4, §5, §6, §7, §8

TXN = test: RT-qPCR PCR array mQPA-8-Nrf2, TXN expression in NHEK; format: cell-based, human
Protocol: as §1, §2, §3, §4, §5, §6, §7, §8

GCLM = test: RT-qPCR PCR array mQPA-8-Nrf2, GCLM expression in NHEK; format: cell-based, human
Protocol: as §1, §2, §3, §4, §5, §6, §7, §8

[1] = tested on: normal human epidermal keratinocytes (NHEK); test: Preliminary cytotoxicity assay (WST-8 reduction, viability and morphological observations); format: cell-based; details: human, 24 h
Protocol: as §1, §2
(§9) Cell type: NHEK in assay medium. Incubation time: 24 hours.
(§10) After treatment, the cells were incubated with WST-8 (highly water-soluble tetrazolium salt) reduced in a water-soluble orange colored product (formazan) by succinate dehydrogenase (mitochondrial enzyme). This transformation is proportional to the number of living cells and their metabolic activity. The optical density (OD) of the extracts at 450 nm was recorded with a spectrometer (VERSAmax, Molecular Devices).

[2] = as above; format: cell-based, human; details: human
Protocol: as §1, §2, §9, §10

NQO1 = test: RT-qPCR PCR array mQPA-8-Nrf2, NQO1 expression in NHEK; format: cell-based, human
Protocol: as §1, §2, §3, §4, §5, §6, §7, §8

[3] = UV-irradiated (UVB-275 mJ/cm^2 +UVA-2 J/cm^2), 0.5 μM
[4] = UV-irradiated (UVB-275 mJ/cm^2 +UVA-2 J/cm^2), 3 μM
[5] = UV-irradiated (UVB-275 mJ/cm^2 +UVA-2 J/cm^2), 30 μM

SMILES: C[N+](C)(C)[C@@H](Cc1c[nH]c(=S)[nH]1)C(=O)[O-] [L-Ergothioneine, (2S)-3-(2-thioxo-2,3-dihydro-1H-imidazol-4-yl)-2-(trimethylammonio)-propanoate]
- Modulation of the gene expression profile of irradiated keratinocytes (Nrf2 pathway; UVB (+UVA) irradiated, tested at 0.5, 3 and 30 μM): did not induce major modulations
- Effect on gene expression, basal keratinocytes (Nrf2 pathway; basal, lowest tested concentrations): no effect was observed
- Modulation of the gene expression profile of basal keratinocytes (Nrf2 pathway; basal, tested at 0.5, 3 and 30 μM): did not induce major modulations
- Effect on gene expression, irradiated keratinocytes (Nrf2 pathway; irradiated, lowest tested concentrations): no effect was observed
- RPS28 % Control RPS28 (RPS28; [3]): 100 % Control
- RPS28 % Control RPS28 (RPS28; [4]): 100 % Control
- RPS28 % Control RPS28 (RPS28; [5]): 100 % Control
- RPS28 % Control RPS28 (RPS28; basal conditions, 0.5 μM): 100 % Control
- RPS28 % Control RPS28 (RPS28; basal conditions, 3 μM): 100 % Control
- RPS28 % Control RPS28 (RPS28; basal conditions, 30 μM): 100 % Control
- MT1G % Control RPS28 (MT1G; [3]): 81 % Control
- MT1G % Control RPS28 (MT1G; [4]): 94 % Control
- MT1G % Control RPS28 (MT1G; [5]): 102 % Control
- MT1G % Control RPS28 (MT1G; basal conditions, 0.5 μM): 113 % Control
- MT1G % Control RPS28 (MT1G; basal conditions, 3 μM): 99 % Control
- MT1G % Control RPS28 (MT1G; basal conditions, 30 μM): 115 % Control
- TXNRD1 % Control RPS28 (TXNRD1; [3]): 99 % Control
- TXNRD1 % Control RPS28 (TXNRD1; [4]): 97 % Control
- TXNRD1 % Control RPS28 (TXNRD1; [5]): 120 % Control
- TXNRD1 % Control RPS28 (TXNRD1; basal conditions, 0.5 μM): 75 % Control
- TXNRD1 % Control RPS28 (TXNRD1; basal conditions, 3 μM): 72 % Control
- TXNRD1 % Control RPS28 (TXNRD1; basal conditions, 30 μM): 82 % Control
- GCLC % Control RPS28 (GCLC; [3]): 106 % Control
- GCLC % Control RPS28 (GCLC; [4]): 126 % Control
- GCLC % Control RPS28 (GCLC; [5]): 181 % Control
- GCLC % Control RPS28 (GCLC; basal conditions, 0.5 μM): 111 % Control
- GCLC % Control RPS28 (GCLC; basal conditions, 3 μM): 118 % Control
- GCLC % Control RPS28 (GCLC; basal conditions, 30 μM): 140 % Control
- HMOX1 % Control RPS28 (HMOX1; [3]): 104 % Control
- HMOX1 % Control RPS28 (HMOX1; [4]): 109 % Control
- HMOX1 % Control RPS28 (HMOX1; [5]): 141 % Control
- HMOX1 % Control RPS28 (HMOX1; basal conditions, 0.5 μM): 86 % Control
- HMOX1 % Control RPS28 (HMOX1; basal conditions, 3 μM): 91 % Control
- HMOX1 % Control RPS28 (HMOX1; basal conditions, 30 μM): 98 % Control
- TXN % Control RPS28 (TXN; [3]): 89 % Control
- TXN % Control RPS28 (TXN; [4]): 99 % Control
- TXN % Control RPS28 (TXN; [5]): 101 % Control
- TXN % Control RPS28 (TXN; basal conditions, 0.5 μM): 87 % Control
- TXN % Control RPS28 (TXN; basal conditions, 3 μM): 83 % Control
- TXN % Control RPS28 (TXN; basal conditions, 30 μM): 98 % Control
- GCLM % Control RPS28 (GCLM; [3]): 76 % Control
- GCLM % Control RPS28 (GCLM; [4]): 86 % Control
- GCLM % Control RPS28 (GCLM; [5]): 86 % Control
- GCLM % Control RPS28 (GCLM; basal conditions, 0.5 μM): 95 % Control
- GCLM % Control RPS28 (GCLM; basal conditions, 3 μM): 97 % Control
- GCLM % Control RPS28 (GCLM; basal conditions, 30 μM): 98 % Control
- Viability (%) ([1]; 2.2 µM): 105%
- Viability (%) ([1]; 6.7 µM): 101%
- Viability (%) ([1]; 20 µM): 102%
- Viability (%) ([1]; 180 µM): 95%
- Viability (%) ([1]; 4860 µM): 79%
- viability at 24 h, 2.2 µM ([2]; Viability (%)): 97%
- viability at 24 h, 6.7 µM ([2]; Viability (%)): 98%
- viability at 24 h, 20 µM ([2]; Viability (%)): 99%
- viability at 24 h, 60 µM ([2]; Viability (%)): 100%
- viability at 24 h, 180 µM ([2]; Viability (%)): 99%
- viability at 24 h, 540 µM ([2]; Viability (%)): 100%
- viability at 24 h, 1620 µM ([2]; Viability (%)): 89%
- viability at 24 h, 4860 µM ([2]; Viability (%)): 82%
- viability at 24 h, 2.2 µM ([2]; Viability Mean (%)): 100%
- viability at 24 h, 6.7 µM ([2]; Viability Mean (%)): 99%
- viability at 24 h, 20 µM ([2]; Viability Mean (%)): 99%
- viability at 24 h, 60 µM ([2]; Viability Mean (%)): 99%
- viability at 24 h, 180 µM ([2]; Viability Mean (%)): 97%
- viability at 24 h, 540 µM ([2]; Viability Mean (%)): 66%
- viability at 24 h, 1620 µM ([2]; Viability Mean (%)): 92%
- viability at 24 h, 4860 µM ([2]; Viability Mean (%)): 83%
- NQO1 % Control RPS28 (NQO1; [3]): 118 % Control
- NQO1 % Control RPS28 (NQO1; [4]): 136 % Control
- NQO1 % Control RPS28 (NQO1; [5]): 207 % Control
- NQO1 % Control RPS28 (NQO1; basal conditions, 0.5 μM): 127 % Control
- NQO1 % Control RPS28 (NQO1; basal conditions, 3 μM): 131 % Control
- NQO1 % Control RPS28 (NQO1; basal conditions, 30 μM): 155 % Control
